Assay results: patent US20260049092A1, “ANTIBACTERIAL COMPOUNDS” (Blacksmith Medicines, Inc., priority 2022, published 2026)
≈ marks a conversion by molar mass, not a printed value. Where two headings read alike, the source gives them in different places.

Tests used:
Test in all cases: Bacterial susceptibility testing (MIC, broth microdilution)
Assay type in all cases: cell-based
[1] = test system: P. aeruginosa ATCC27853; conditions: Pseudomonas aeruginosa
In short: (§1)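 CLSI broth microdilution was run in cation-adjusted Mueller-Hinton broth with an inoculum of 3×10^5–7×10^5 CFU/mL and 2-fold compound dilutions. Plates were incubated in ambient air at 35° C for 18-24 h. MIC was the lowest concentration preventing visible growth (OD600 nm<0.05).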

[2] = test system: K. pneumoniae ATCC13883; conditions: Klebsiella pneumoniae
In short: as §1

[3] = test system: P. aeruginosa PAO1; conditions: Pseudomonas aeruginosa
In short: as §1

[4] = test system: E. coli ATCC25922; conditions: Escherichia coli
In short: as §1

[5] = ATCC27853, broth microdilution, cation adjusted Mueller-Hinton Broth, 35° C., 18-24 h, read-out: P. aeruginosa ATCC27853 MIC
[6] = ATCC13883, broth microdilution, cation adjusted Mueller-Hinton Broth, 35° C., 18-24 h, read-out: K. pneumoniae ATCC13883 MIC
[7] = PAO1, broth microdilution, cation adjusted Mueller-Hinton Broth, 35° C., 18-24 h, read-out: P. aeruginosa PAO1 MIC
[8] = ATCC25922, broth microdilution, cation adjusted Mueller-Hinton Broth, 35° C., 18-24 h, read-out: E. coli ATCC25922 MIC
[9] = ATCC27853, read-out: P. aeruginosa ATCC27853 MIC
[10] = ATCC13883, read-out: K. pneumoniae ATCC13883 MIC
[11] = PAO1, read-out: P. aeruginosa PAO1 MIC
[12] = ATCC25922, read-out: E. coli ATCC25922 MIC

Row | Compound | MIC [1, 5] | MIC [2, 6] | MIC [3, 7] | MIC [4, 8] | MIC [1, 9] | MIC [2, 10] | MIC [3, 11] | MIC [4, 12]
1 | C[C@H](O)c1nccn1[C@@H](C#Cc1ccc(-c2ccc(N3CCC3)cc2)cc1)CO [Compound 108, (S)-4-(4′-(azetidin-1-yl)-[1,1′-biphenyl]-4-yl)-2-(2-((S)-1-hydroxyethyl)-1H-imidazol-1-yl)but-3-yn-1-ol] | > 32 µg/mL | > 32 µg/mL | > 32 µg/mL | 0.38 µg/mL (≈ 0.981 µM) | – | – | – | –
2 | C[C@H](O)c1nccn1[C@@H](C#Cc1ccc(-c2ccc(N[C@H]3COC[C@@H]3O)c(F)c2)cc1)CO (single isomer, unassigned) [Compound 60] | 4 µg/mL (≈ 8.86 µM) | 4 µg/mL (≈ 8.86 µM) | 4 µg/mL (≈ 8.86 µM) | 2 µg/mL (≈ 4.43 µM) | – | – | – | –
3 | C[C@H](O)c1nccn1[C@@H](C#Cc1ccc(-c2ccc(OC3COC[C@@H]3O)c(F)c2)cc1)CO (single isomer, unassigned) [Compound 7] | 4 µg/mL (≈ 8.84 µM) | 4 µg/mL (≈ 8.84 µM) | 2 µg/mL (≈ 4.42 µM) | 1 µg/mL (≈ 2.21 µM) | – | – | – | –
4 | C[C@H](O)c1nccn1[C@@H](C#Cc1ccc(-c2ccc3c(c2)NC(=O)C3)cc1)CO [Compound 84, 6-(4-((S)-4-hydroxy-3-(2-((S)-1-hydroxyethyl)-1H-imidazol-1-yl)but-1-yn-1-yl)phenyl)indolin-2-one] | 16 µg/mL (≈ 41.3 µM) | 32 µg/mL (≈ 82.6 µM) | 8 µg/mL (≈ 20.6 µM) | 8 µg/mL (≈ 20.6 µM) | – | – | – | –
5 | C[C@H](O)c1nccn1[C@@H](C#Cc1ccc(-c2ccc3c(c2)OCCO3)cc1)CO [Compound 82, (S)-4-(4-(2,3-dihydrobenzo[b][1,4]dioxin-6-yl)phenyl)-2-(2-((S)-1-hydroxyethyl)-1H-imidazol-1-yl) but-3-yn-1-ol] | > 32 µg/mL | 1 µg/mL (≈ 2.56 µM) | 4 µg/mL (≈ 10.2 µM) | 0.25 µg/mL (≈ 0.64 µM) | – | – | – | –
6 | CC(=O)N1CC(Oc2ccc(-c3ccc(C#C[C@@H](CO)n4ccnc4[C@H](C)O)cc3)cc2)C1 [Compound 88, 1-(3-((4′-((S)-4-hydroxy-3-(2-((S)-1-hydroxyethyl)-1H-imidazol-1-yl)but-1-yn-1-yl)-[1,1′-biphenyl]-4-yl)oxy)azetidin-1-yl)ethan-1-one] | – | – | – | – | 4 µg/mL (≈ 8.98 µM) | 2 µg/mL (≈ 4.49 µM) | 2 µg/mL (≈ 4.49 µM) | 1 µg/mL (≈ 2.24 µM)
7 | C[C@H](O)c1nccn1[C@@H](C#Cc1ccc(-c2ccc(O[C@H]3COC[C@@H]3O)cc2Cl)cc1)CO (single isomer, unassigned) [Compound 48] | 4 µg/mL (≈ 8.53 µM) | 4 µg/mL (≈ 8.53 µM) | 2 µg/mL (≈ 4.26 µM) | 1 µg/mL (≈ 2.13 µM) | – | – | – | –
8 | Cc1cc(-c2ccc(C#C[C@@H](CO)n3ccnc3[C@H](C)O)cc2)ccc1O[C@@H]1COC[C@H]1O (single isomer, unassigned) [Compound 113] | > 32 µg/mL | 8 µg/mL (≈ 17.8 µM) | 32 µg/mL (≈ 71.3 µM) | 4 µg/mL (≈ 8.92 µM) | – | – | – | –
9 | C[C@H](O)c1nccn1[C@@H](C#Cc1ccc(-c2ccc(OC3CCN(CC#N)CC3)cc2)cc1)CO (single isomer, unassigned) [Compound 103] | 2 µg/mL (≈ 4.25 µM) | 2 µg/mL (≈ 4.25 µM) | 2 µg/mL (≈ 4.25 µM) | 1 µg/mL (≈ 2.13 µM) | – | – | – | –
10 | C[C@H](O)c1nccn1[C@@H](C#Cc1ccc(-c2ccc([C@H]3C[C@](N)(C#N)C3)cc2)cc1)CO (racemic) [Compound 101, (rac-cis)-1-amino-3-(4′-((S)-4-hydroxy-3-(2-((S)-1-hydroxyethyl)-1H-imidazol-1-yl)but-1-yn-1-yl)-[1,1′-biphenyl]-4-yl)cyclobutane-1-carbonitrile] | 4 µg/mL (≈ 9.38 µM) | 1 µg/mL (≈ 2.34 µM) | 1 µg/mL (≈ 2.34 µM) | 0.5 µg/mL (≈ 1.17 µM) | – | – | – | –
11 | C[C@H](O)c1nccn1[C@@H](C#Cc1ccc(-c2ccc(OC3CN(C(=O)N(C)C)C3)cc2)cc1)CO [Compound 95, 3-((4′-((S)-4-hydroxy-3-(2-((S)-1-hydroxyethyl)-1H-imidazol-1-yl)but-1-yn-1-yl)-[1,1′-biphenyl]-4-yl)oxy)-N,N-dimethylazetidine-1-carboxamide] | – | – | – | – | 4 µg/mL (≈ 8.43 µM) | 2 µg/mL (≈ 4.21 µM) | 2 µg/mL (≈ 4.21 µM) | 0.5 µg/mL (≈ 1.05 µM)
12 | CC(=O)N[C@H]1C[C@H](c2ccc(-c3ccc(C#C[C@@H](CO)n4ccnc4[C@H](C)O)cc3)cc2)C1 (racemic) [Compound 127, N-((rac-trans)-3-(4′-((S)-4-hydroxy-3-(2-((S)-1-hydroxyethyl)-1H-imidazol-1-yl)but-1-yn-1-yl)-[1,1′-biphenyl]-4-yl)cyclobutyl)acetamide] | 1 µg/mL (≈ 2.25 µM) | 1 µg/mL (≈ 2.25 µM) | 1 µg/mL (≈ 2.25 µM) | 0.25 µg/mL (≈ 0.564 µM) | – | – | – | –
13 | C[C@H](O)c1nccn1[C@@H](C#Cc1ccc(-c2ccc(NC3CC(NCC#N)C3)cc2)cc1)CO (stereo partly drawn) [Compound 68, 2-((3-((4′-((S)-4-hydroxy-3-(2-((S)-1-hydroxyethyl)-1H-imidazol-1-yl)but-1-yn-1-yl)-[1,1′-biphenyl]-4-yl)amino)cyclobutyl)amino) acetonitrile] | 4 µg/mL (≈ 8.78 µM) | 2 µg/mL (≈ 4.39 µM) | 2 µg/mL (≈ 4.39 µM) | 1 µg/mL (≈ 2.2 µM) | – | – | – | –
14 | C[C@H](O)c1nccn1[C@@H](C#Cc1ccc(-c2ccc(N3CCC3=O)cc2)cc1)CO (single isomer, unassigned) [Compound 109] | > 32 µg/mL | 1.5 µg/mL (≈ 3.74 µM) | 2 µg/mL (≈ 4.98 µM) | 0.62 µg/mL (≈ 1.54 µM) | – | – | – | –
15 | C[C@H](O)c1nccn1[C@@H](C#Cc1ccc(-c2ccn(C)c(=O)c2)cc1)CO [Compound 112, 4-(4-((S)-4-hydroxy-3-(2-((S)-1-hydroxyethyl)-1H-imidazol-1-yl)but-1-yn-1-yl)phenyl)-1-methylpyridin-2(1H)-one] | > 32 µg/mL | > 32 µg/mL | > 32 µg/mL | > 32 µg/mL | – | – | – | –
16 | C[C@H](O)c1nccn1[C@@H](C#Cc1ccc(-c2ccc3c(c2)NCCO3)cc1)CO [Compound 83, (S)-4-(4-(3,4-dihydro-2H-benzo[b][1,4]oxazin-6-yl)phenyl)-2-(2-((S)-1-hydroxyethyl)-1H-imidazol-1-yl)but-3-yn-1-ol] | > 32 µg/mL | 4 µg/mL (≈ 10.3 µM) | 16 µg/mL (≈ 41.1 µM) | 2 µg/mL (≈ 5.14 µM) | – | – | – | –
17 | C[C@H](O)c1nccn1[C@@H](C#Cc1ccc(-c2ccc(O[C@@H]3COC[C@H]3O)cc2F)cc1)CO (single isomer, unassigned) [Compound 3] | 2 µg/mL (≈ 4.42 µM) | 2 µg/mL (≈ 4.42 µM) | 2 µg/mL (≈ 4.42 µM) | 1 µg/mL (≈ 2.21 µM) | – | – | – | –
18 | C[C@H](O)c1nccn1[C@@H](C#Cc1ccc(-c2ccc(O[C@H]3COC[C@@H]3O)c(F)c2)c(F)c1)CO (single isomer, unassigned) [Compound 11] | 8 µg/mL (≈ 17 µM) | 4 µg/mL (≈ 8.5 µM) | 4 µg/mL (≈ 8.5 µM) | 1 µg/mL (≈ 2.13 µM) | – | – | – | –
19 | Cc1cc(-c2ccc(C#C[C@@H](CO)n3ccnc3[C@H](C)O)cc2)ccc1O[C@H]1COC[C@@H]1O (single isomer, unassigned) [Compound 114] | > 32 µg/mL | 8 µg/mL (≈ 17.8 µM) | 16 µg/mL (≈ 35.7 µM) | 4 µg/mL (≈ 8.92 µM) | – | – | – | –
20 | CC(N1CC(Oc2ccc(-c3ccc(C#C[C@@H](CO)n4ccnc4[C@H](C)O)cc3)cc2)C1)C(F)(F)F (mixture of isomers) [Compound 97, (2S)-2-(2-((S)-1-hydroxyethyl)-1H-imidazol-1-yl)-4-(4′-((1-(1,1,1-trifluoropropan-2-yl)azetidin-3-yl)oxy)-[1,1′-biphenyl]-4-yl)but-3-yn-1-ol] | – | – | – | – | 32 µg/mL (≈ 64.1 µM) | 8 µg/mL (≈ 16 µM) | 16 µg/mL (≈ 32 µM) | 4 µg/mL (≈ 8.01 µM)
21 | CO[C@H]1C[C@H](c2ccc(-c3ccc(C#C[C@@H](CO)n4ccnc4[C@H](C)O)cc3)cc2)C1 (racemic) [Compound 117, (S)-2-(2-((S)-1-hydroxyethyl)-1H-imidazol-1-yl)-4-(4′-((rac-trans)-3-methoxycyclobutyl)-[1,1′-biphenyl]-4-yl)but-3-yn-1-ol] | 4 µg/mL (≈ 9.6 µM) | 0.25 µg/mL (≈ 0.6 µM) | 2 µg/mL (≈ 4.8 µM) | 0.12 µg/mL (≈ 0.288 µM) | – | – | – | –
22 | C[C@H](O)c1nccn1[C@@H](C#Cc1ccc(-c2ccc(O[C@H]3COC[C@@H]3O)c(F)c2F)cc1)CO (single isomer, unassigned) [Compound 14] | 8 µg/mL (≈ 17 µM) | 4 µg/mL (≈ 8.5 µM) | 4 µg/mL (≈ 8.5 µM) | 2 µg/mL (≈ 4.25 µM) | – | – | – | –
23 | C[C@H](O)c1nccn1[C@@H](C#Cc1ccc(-c2ccc(O[C@@H]3C[C@H]3NCC#N)cc2)cc1)CO (racemic) [Compound 141, 2-(((rac-trans)-2-((4′-((S)-4-hydroxy-3-(2-((S)-1-hydroxyethyl)-1H-imidazol-1-yl)but-1-yn-1-yl)-[1,1′-biphenyl]-4-yl)oxy)cyclopropyl)amino) acetonitrile] | – | – | – | – | 8 µg/mL (≈ 18.1 µM) | 1 µg/mL (≈ 2.26 µM) | 2 µg/mL (≈ 4.52 µM) | 1 µg/mL (≈ 2.26 µM)
24 | C[C@H](O)c1nccn1[C@@H](C#Cc1ccc(-c2ccc(OC3(C)COC3)cc2)cc1)CO [Compound 136, (S)-2-(2-((S)-1-hydroxyethyl)-1H-imidazol-1-yl)-4-(4′-((3-methyloxetan-3-yl)oxy)-[1,1′-biphenyl]-4-yl)but-3-yn-1-ol] | 4 µg/mL (≈ 9.56 µM) | 0.5 µg/mL (≈ 1.19 µM) | 2 µg/mL (≈ 4.78 µM) | 0.25 µg/mL (≈ 0.597 µM) | – | – | – | –
25 | C[C@H](O)c1nccn1[C@@H](C#Cc1ccc(-c2ccc(O[C@H]3C[C@H](C#N)C3)cc2)cc1)CO (racemic) [Compound 130, (rac-trans)-3-((4′-((S)-4-hydroxy-3-(2-((S)-1-hydroxyethyl)-1H-imidazol-1-yl)but-1-yn-1-yl)-[1,1′-biphenyl]-4-yl)oxy) cyclobutane-1-carbonitrile] | > 32 µg/mL | 1 µg/mL (≈ 2.34 µM) | 2 µg/mL (≈ 4.68 µM) | 0.25 µg/mL (≈ 0.585 µM) | – | – | – | –
26 | C[C@H](O)c1ccc(-c2ccc(C#C[C@@H](CO)n3ccnc3[C@H](C)O)cc2)cc1 (single isomer, unassigned) [Compound 134] | 8 µg/mL (≈ 21.3 µM) | 8 µg/mL (≈ 21.3 µM) | 4 µg/mL (≈ 10.6 µM) | 1 µg/mL (≈ 2.66 µM) | – | – | – | –
